Results taken from patent US20260258051A1, “Camptothecin Compound, Preparation Method Therefor and Use Thereof” (SICHUAN KELUN-BIOTECH BIOPHARMACEUTICAL CO., LTD., priority 2022, published 2026).
Where two headings read alike, the source gives them in different places.

Columns and labels:
[1] = Liver microsome stability test (human); assay type: in vitro ADME; conditions: 1 μM
Method: (§1) Liver microsomes were used as an in vitro model to evaluate the metabolic stability of compounds in human and monkey liver microsomes.
Mixed human liver microsomes: Xenotech, USA
(§2) The positive compound testosterone or the tested substance (liver microsome solution, 50 μL) was mixed with PBS (25 μL). After pre-incubation (37° C.) for 5 min, NADPH (25 μL) was added to make the final concentration of the positive compound or the tested substance 1 μM, the final concentration of human liver microsomal protein was 0.5 mg/ml, the final concentration of monkey liver microsomal protein was 1 mg/ml, the tested substance group and the positive compound group were incubated for 0 min, 15 min. After being reacted for corresponding time, 300 μL of ice-cold acetonitrile containing internal standard was added to terminate the reaction, vortexed, and stored at −80° C. for later analysis. All incubated samples were double samples.
(§3) The tested compound was vortexed for 1 min, and centrifuged for 10 min (4° C., 4000 rpm), and 300 μL of the supernatant was taken for LC-MS/MS analysis.
(§4) Excel software was used to calculate the remaining rate (%) of the drug in primary form in the incubation system: […]

[2] = Permeability test in MDCK cell model; assay type: in vitro ADME; conditions: dog
Method: (§5) The MDCK cell model was used to evaluate the permeability of the compounds, the LC-MS/MS method was used to determine the concentration of the substance to be tested, and the apparent permeability coefficient (Papp) and efflux ratio were calculated [Efflux ratio=Papp(B→A)/Papp(A→B)].
(§6) Complete culture medium: 10% fetal bovine serum and 1% penicillin/streptomycin were added to MEM culture medium.
(§7) Digestive solution: 0.05% trypsin-EDTA.
(§8) HBSS buffer: HBSS containing Ca^2+, Mg^2+.
(§9) Permeating solution: HBSS containing 10 mM Hepes, 4% BSA, pH 7.4.
(§10) Compound stock solution: a certain amount of the compound to be tested was weighed and formulated with DMSO to prepare a 10 mM stock solution.
(§11) MDCK cells (26th generation) in the logarithmic growth phase were digested and dispersed evenly with 0.05% trypsin-EDTA, and then inoculated into the Transwell chamber at 3*10^5 cells/cm^2, with 200 μL on the A side and 1000 μL on the B side. After inoculation, the medium was changed once every day and the culturing was carried out for 3 to 4 days.
(§12) The cell culture medium was discarded by pipetting, then washing was carried out three times with the permeating solution. 200 μL of permeating solution was added to A side and 1000 μL of permeating solution was added to B side. A voltage resistance meter was used to measure the cell transmembrane resistance (TEER). After the TEER value of the cells was measured, the permeating solution on both sides was discarded by pipetting, and the solution was added. After 120 minutes, 150 μL of samples were taken from A side and B side, respectively, and frozen at −80° C. before testing. Then, 10 μg/ml Fluorescent Yellow was added to A side. After incubation for 30 minutes, 100 μL of solution at B side was pipetted and added into a 96-well white plate. The fluorescence value was measured at the wavelengths of Ex=485 nm and Em=530 nm using a microplate reader, and the permeance was calculated (which was less than 1%).
(§13) 80 μL of the compound to be tested was taken, added to 320 μL of acetonitrile solution containing internal standard (30 ng/mL Tolbutamide), vortexed, and centrifuged for 10 min (4000 rpm, 4° C.), and the supernatant was taken for LC-MS/MS analysis.
(§14) Excel 2013 was used to calculate Papp values and Papp ratio of B side→A side to A side→B side, and the recovery rates of each Control Compound and the compound to be tested were calculated.
(§15) Apparent permeability coefficient (Papp) of compound was calculated according to the following formula:
(§16) C0 was the initial concentration (μM) of the drug to be tested at the donor, (dCr/dt)×Vr was the rate (μM/s) at which the drug to be tested appeared at the receiver, Vr was the solution volume (mL) at the receiver, and A was the surface area (cm^2) of polycarbonate membrane.
(§17) Evaluation criteria: Low permeability: Papp≤0.5 (×10^−6 cm/s) • Medium permeability: 0.5<Papp<2.5 (×10^−6 cm/s) • High permeability: Papp≥2.5 (×10^−6 cm/s)
(§18) Efflux ratio (ER) was calculated according to Papp:
(§19) [formula] • wherein, Papp(B→A) was the apparent permeability coefficient of the drug to be tested from the BL (baso-lateral) end to the AP (apical) end, and Papp (A→B) was the apparent permeability coefficient of the drug to be tested from the AP end to the BL end.
(§20) • Probably being an efflux transporter substrate (Probably): ERa≥2 and ERa/ERi>2 • Likely being an efflux transporter substrate (Likely): ERa≥2 • Unlikely or impossibly being an efflux transporter substrate (Poor or non): ERa<2 • wherein, ERi and ERa were the efflux ratios of the compound to be tested in the presence and absence of P-gp inhibitor, respectively.

MDCK cells = experiment: Permeability test in MDCK cell model; assay type: in vitro ADME
Method: as §5, §6, §7, §8, §9, §10, §11, §12, §13, §14, §15, §16, §17, §18, §19, §20

NCI-H1975 cells = experiment: Inhibitory effect on NCI-H1975 cell proliferation; assay type: cell-based; conditions: Homo sapiens; NCI-H1975, 72 h incubation, Cell Counting-Lite 2.0
Method: (1) Cell plating: First, tumor cells NCI-H1975 were cultured with corresponding culture medium, the cells were digested with trypsin and centrifuged, then the cells were resuspended and counted, and the cells were adjusted to an appropriate concentration for plating.
(§21) Co-incubation of the compounds of the present invention and tumor cells: After cell adherence, the culture medium in the cells was removed, and the diluted bioactive molecules (compounds of the present invention) were added into the wells of the above plates, and incubated for 72 h.
(§22) In vitro cell viability detection: After the incubation, 50 μL of Cell Counting-Lite™ 2.0 reagent (Vazyme) was added to each well, shaken and mixed well in the dark, and reacted for 10 minutes before testing. Microplate reader (manufacturer: BMG, Model: PHERA Star-FS) was used for reading. The Cell Counting-Lite™ without cells was used to obtain the background RLU, and the Cell Counting-Lite™ with cells was used obtain the solvent RLU. Cell inhibition rate=1−(sample RLU−background RLU)/(solvent RLU−background RLU)×100%. The half-inhibition concentration (IC50) of compound was calculated by fitting the curve according to the four-parameter model. RLU: relative light unit.

HCC1954 cells = experiment: Inhibitory effect on HCC1954 cell proliferation; assay type: cell-based; conditions: Homo sapiens; HCC1954, 72 h incubation, Cell Counting-Lite 2.0
Method: (1) Cell plating: First, tumor cells HCC1954 were cultured with corresponding culture medium, the cells were digested with trypsin and centrifuged, then the cells were resuspended and counted, and the cells were adjusted to an appropriate concentration for plating.
as §21, §22

[3] = Liver microsome stability test (monkey); assay type: in vitro ADME, cynomolgus; conditions: 1 μM
Method: as §1
Mixed male cynomolgus liver microsomes: RILD, China
as §2, §3, §4

HCC827 cells = experiment: Inhibitory effect on HCC827 cell proliferation; assay type: cell-based; conditions: Homo sapiens; HCC827, 72 h incubation, Cell Counting-Lite 2.0
Method: (1) Cell plating: First, tumor cells HCC827 were cultured with corresponding culture medium, the cells were digested with trypsin and centrifuged, then the cells were resuspended and counted, and the cells were adjusted to an appropriate concentration for plating.
as §21, §22

MDA-MB-231 cells = experiment: Inhibitory effect on MDA-MB-231 cell proliferation; assay type: cell-based; conditions: Homo sapiens; MDA-MB-231, 72 h incubation, Cell Counting-Lite 2.0
Method: (1) Cell plating: First, tumor cells MDA-MB-231 were cultured with corresponding culture medium, the cells were digested with trypsin and centrifuged, then the cells were resuspended and counted, and the cells were adjusted to an appropriate concentration for plating.
(§23) Co-incubation of the compounds of the present invention and tumor cells: 90 μL of cell suspension was added to 96-well plates respectively. After cell adherence, 10 μL of bioactive molecules (compounds of the present invention) diluted with culture medium were added into the wells of the above plates, and incubated for 72 h.
(§24) In vitro cell viability detection: After the incubation, 50 μL of Cell Counting-Lite™ 2.0 reagent (Vazyme) was added to each well, shaken and mixed well in the dark, and reacted for 10 minutes before testing. Microplate reader (manufacturer: BMG, Model: PHERA Star-FS) was used for reading. The culture wells without cells were used as the background RLU, and the culture wells with cells but no compound were used as the cell control RLU. Cell inhibition rate=1−(sample RLU−background RLU)/(cell control RLU−background RLU)×100%. The half-inhibition concentration (IC50) of compound was calculated by fitting the curve according to the four-parameter model.

NCI-H358 cells = experiment: Inhibitory effect on NCI-H358 cell proliferation; assay type: cell-based; conditions: Homo sapiens; NCI-H358, 72 h incubation, Cell Counting-Lite 2.0
Method: (1) Cell plating: First, tumor cells NCI-H358 were cultured with corresponding culture medium, the cells were digested with trypsin and centrifuged, then the cells were resuspended and counted, and the cells were adjusted to an appropriate concentration for plating.
as §23, §24

Jeko-1 cells = experiment: Inhibitory effect on Jeko-1 cell proliferation; assay type: cell-based; conditions: Homo sapiens; Jeko-1, 72 h incubation, Cell Counting-Lite 2.0
Method: (1) Cell plating: First, tumor cells Jeko-1 were cultured with corresponding culture medium, the cells were resuspended and counted, and finally the cells were adjusted to an appropriate concentration for plating.
as §23, §24

HT29 cells = experiment: Inhibitory effect on HT29 cell proliferation; assay type: cell-based; conditions: Homo sapiens, HT-29; HT29, 72 h incubation, Cell Counting-Lite 2.0
Method: (1) Cell plating: First, tumor cells HT29 were cultured with corresponding culture medium, the cells were digested with trypsin and centrifuged, then the cells were resuspended and counted, and the cells were adjusted to an appropriate concentration for plating.
as §23, §24

NCI-N87 cells = experiment: Inhibitory effect on NCI-N87 cell proliferation; assay type: cell-based; conditions: Homo sapiens, NCI-N87, 72 h, read-out: IC50 (nM), inhibitory activity on NCI-N87 cell proliferation
Method: (1) Cell plating: First, tumor cells NCI-N87 were cultured with corresponding culture medium, the cells were digested with trypsin and centrifuged, then the cells were resuspended and counted, and the cells were adjusted to an appropriate concentration for plating.
as §23, §24

HCC1806 cells = experiment: Inhibitory effect on HCC1806 cell proliferation; assay type: cell-based; conditions: Homo sapiens; HCC1806, 72 h incubation, Cell Counting-Lite 2.0
Method: (1) Cell plating: First, tumor cells HCC1806 were cultured with corresponding culture medium, the cells were digested with trypsin and centrifuged, then the cells were resuspended and counted, and the cells were adjusted to an appropriate concentration for plating.
as §23, §24

MDA-MB-453 cells = experiment: Inhibitory effect on MDA-MB-453 cell proliferation; assay type: cell-based; conditions: Homo sapiens; MDA-MB-453, 72 h incubation, Cell Counting-Lite 2.0
Method: (1) Cell plating: First, tumor cells MDA-MB-453 were cultured with corresponding culture medium, the cells were digested with trypsin and centrifuged, then the cells were resuspended and counted, and the cells were adjusted to an appropriate concentration for plating.
as §23, §24

[4] = pH 7.4, 2.00 μM, Papp(B→A)/Papp(A→B), absence of P-gp inhibitor, read-out: Efflux ratio (ERa)

## CC[C@@]1(O)C(=O)OCc2c1cc1n(c2=O)Cc2c-1nc1cc(F)c(Cl)c3c1c2[C@@H](NC(=O)C[C@H](C)O)CC3 [Compound 2-25, (S)—N-((1S,9S)-4-chloro-9-ethyl-5-fluoro-9-hydroxy-10,13-dioxo-2,3,9,10,13,15-hexahydro-1H,12H-benzo[d]pyrano[3′,4′:6,7]indolizino[1,2-b]quinolin-1-yl)-3-hydroxybutyamide]
[1]; human, microsomes, 0.25 h
  Remaining rate (%) Human: 80.0%
[2]; pH 7.4
  Papp A→B at 120 min, 2 μM: 0.78 ×10⁻⁶ cm/s
  Papp B→A at 120 min, 2 μM: 3.56 ×10⁻⁶ cm/s
  efflux ratio at 120 min, 2 μM: 4.57
MDCK cells
  Permeability class according to the Papp(A→B) results: medium-permeability
NCI-H1975 cells
  IC50: 29.4 nM
HCC1954 cells
  IC50: 171 nM
[3]; male, monkey, microsomes, 0.25 h
  Remaining rate (%) Monkey: 79.5%
HCC827 cells
  IC50: 110 nM

## CC[C@@]1(O)C(=O)OCc2c1cc1n(c2=O)Cc2c-1nc1cc(F)c(Cl)cc1c2CNC(=O)CO [Compound 2-1, (S)—N-((9-chloro-4-ethyl-8-fluoro-4-hydroxy-3,14-dioxy-3,4,12,14-tetrahydro-1H-pyrano[3′,4′:6,7]indolizino[1,2-b]quinolin-11-yl)methyl)-2-hydroxyacetamide]
[2]; pH 7.4
  Papp A→B at 120 min, 2 μM: 0.52 ×10⁻⁶ cm/s
  Papp B→A at 120 min, 2 μM: 0.42 ×10⁻⁶ cm/s
[2]; [4]
  efflux ratio at 120 min, 2 μM: 0.81
MDCK cells
  Permeability class according to the Papp(A→B) results: medium-permeability
MDCK cells; 2.00 μM
  Efflux transporter substrate evaluation from efflux ratio: not efflux transporter substrates or were weak efflux transporter substrates
MDA-MB-231 cells
  IC50: 38.5 nM
NCI-H358 cells
  IC50: 121 nM
Jeko-1 cells
  IC50: 1.62 nM
HT29 cells
  IC50: 14.6 nM
NCI-N87 cells
  IC50: 81.6 nM
HCC1806 cells
  IC50: 8.08 nM
MDA-MB-453 cells
  IC50: 156 nM

## CC[C@@]1(O)C(=O)OCc2c1cc1n(c2=O)Cc2c-1nc1cc(F)c(C)c3c1c2[C@@H](NC(=O)C[C@H](C)O)CC3 [Control Compound 4, reference compound]
[1]; human liver microsomes 0.5 mg/ml, 15 min, NADPH
  Remaining rate (%) Human: 64.6%
[2]; [4]
  efflux ratio at 120 min, 2 μM: 21.7
[2]; pH 7.4, concentration 2.00 μM, 120 minutes, A to B, read-out: Papp A to B
  Papp A→B at 120 min, 2 μM: 0.24 ×10⁻⁶ cm/s
[2]; pH 7.4, concentration 2.00 μM, 120 minutes, B to A, read-out: Papp B to A
  Papp B→A at 120 min, 2 μM: 5.25 ×10⁻⁶ cm/s
MDCK cells; 2.00 μM
  Efflux transporter substrate evaluation from efflux ratio: could be efflux transporter substrates
  Permeability class according to the Papp(A→B) results: low-permeability
[3]; monkey liver microsomes 1 mg/ml, 15 min, NADPH
  Remaining rate (%) Monkey: 65.1%
